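Cells were grown in 96-well plates and exposed to each compound for 48 hours at five concentrations; endpoints were interpolated linearly between bracketing concentrations, or set to the highest concentration if not reached. Here, GI50 denotes the concentration required for 50% inhibition of growth. TGI denotes the concentration required for complete inhibition of growth.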
Key:
Test in all cases: inhibition of tumour cell growth, NCI panel, 48 h
ACHN renal = system: ACHN renal
CCRF-CEM leukemia = system: CCRF-CEM leukemia
HL-60(TB) leukemia = system: HL-60(TB) leukemia
HOP-92 NSCLC = system: HOP-92 NSCLC
MOLT-4 leukemia = system: MOLT-4 leukemia
NCI-H226 lung = system: NCI-H226 lung
OVCAR-3 ovarian = system: OVCAR-3 ovarian
SF-295 CNS = system: SF-295 CNS
SK-MEL-5 melanoma = system: SK-MEL-5 melanoma
SN12C renal = system: SN12C renal

SMILES	GI50 (ACHN renal) [µM]	TGI (ACHN renal) [µM]	GI50 (CCRF-CEM leukemia) [µM]	TGI (CCRF-CEM leukemia) [µM]	GI50 (HL-60(TB) leukemia) [µM]	TGI (HL-60(TB) leukemia) [µM]	GI50 (HOP-92 NSCLC) [µM]	TGI (HOP-92 NSCLC) [µM]	GI50 (MOLT-4 leukemia) [µM]	TGI (MOLT-4 leukemia) [µM]	GI50 (NCI-H226 lung) [µM]	TGI (NCI-H226 lung) [µM]	GI50 (OVCAR-3 ovarian) [µM]	TGI (OVCAR-3 ovarian) [µM]	GI50 (SF-295 CNS) [µM]	TGI (SF-295 CNS) [µM]	GI50 (SK-MEL-5 melanoma) [µM]	TGI (SK-MEL-5 melanoma) [µM]	GI50 (SN12C renal) [µM]	TGI (SN12C renal) [µM]
Nc1cc(-c2ccc(Cl)cc2)nn1-c1nnc(/C=C/c2ccco2)c(=O)[nH]1	3.09	17.7	2.26	> 41	4.23	> 28.6	2.6	16.7	3.17	> 43	10.1	67.4	2.16	8.45	2.1	27.7	3.37	20.2	18.5	> 100
Cc1c(C(=O)/C=C/c2ccccc2[N+](=O)[O-])[n+](=O)c2ccccc2n1[O-]		24.2				5.71		27.4		29.3		24		13.3		20.4		24.4		18.6
CCOC(=O)C1(Cc2ccc3ccccc3c2)CCCCC(=O)N1 (centres undefined)		> 100		> 100		30.3		59.2		> 100				92.5		35.2				> 100
COc1ccc(Nc2nccc(N3CCN(c4c5ccc(Cl)cc5nc5ccc(OC)cc45)CC3)n2)cc1	6.86	> 100	2.77	> 100	7.22	> 100	3.55	77.1	3.05	> 100	29.7	> 100	11.1	> 100	10.7	42.3	16.1	> 100	6.06	> 100
O=S1CSSC1		94.9		46.2		61.5		57.4		43.1		71.7		58.9		65.1				24.4
CC1(C)CC(=O)C(CC2C(=O)c3ccccc3C2=O)C(=O)C1		> 100		> 100		> 100		> 100		> 100		> 100		> 100		> 100		> 100		> 100
C=C1C(=O)C23C(O)C1CC[C@H]2C12CCCC(C)(COC(C)=O)[C@H]1[C@H](O)[C@]3(O)OC2 (some centres undefined)		3.32		1.16		1.04		3.02		0.72		5.7		2.99		2.41		3.26		3.44
COC(=O)C1C(=O)N(CCc2c[nH]c3ccccc23)C[C@@H]2CCC(=O)C[C@H]12 (some centres undefined)				> 100		> 100		> 100		> 100				> 100		> 100		> 100		> 100
Cc1cc(C)n(C2=NS(=O)(=O)c3ccccc3N2C)n1		> 100		> 100		> 100		> 100		> 100		> 100		> 100		> 100		> 100		> 100
O=C(Cl)C1=C(c2ccccc2)C1c1ccccc1 (centres undefined)		> 100		> 100		> 100		> 100		> 100		> 100		> 100		> 100		> 100		> 100
